Patent US20040242669A1, “Method of treating deficits associated with brain injury” (priority 2003, published 2004)
Marks after values point to notes of the source that are not given here.

Key:
Assay type in all cases: in vivo, rat
[1] = system: animals with hypobaric hypoxia-induced amnesia; test: Open field spontaneous motor activity, hypobaric hypoxia; conditions: for Ambulation / Defecation / Grooming / Rearing: 5 min open field, mean ± S.E.M.
Experimental: (§1) Male rats of the Sprague-Dawley strain (purchased from Charles River, Italy) weighing 280±20 g were used throughout all experiments. The animals were housed two-three to a cage under a constant light-dark cycle (lights on between 8.00 and 20.00) at 21° C. Commercial food and tap water were available ad libitum. All animals were used only once in the behavioral experiments.
(§2) Ropinirole (ropinirole hydrochloride, SmithKline Beecham, Italy) and dihydroergocryptine (DHECP) α-dihydroergocryptine methanesulfonate, Monsanto, Italy) were dissolved in saline and injected subcutaneously (s.c.) at the dose of 0.5 and 1 mg/kg/day for 7 days. In the experiments with kainate-induced convulsions, ropinirole or DHECP were injected intravenously (i.v.) 30 min prior, and again at the same time of the intracerebroventricular (i.c.v) injection on kainic acid; Control animals received an injection of saline alone with the same procedure.
Spontaneous motor activity was scored in a circular open field arena as described by Weijnen and Slangen, Pituitary, Adrenal and the Brain, pp221-235 (1982). Animals were put inside a circular lit-up arena, with the bottom divided into 27 areas of equal size.
(§3) In the first experiment, the effects of ropinirole or DHECP were studied on amnesia induced by hypobaric hypoxia in rats. After a 7-day pretreatment with ropinirole, DHECP or saline, a group of animals was subjected to acute hypobaric hypoxia by means of a hypobaric chamber (Chantiers et Ateliers de Bretagne, France) causing depression to 300 mmHg (Boismare et al., Gerentology, 24, 6-13 (1978)). After 3 min in the chamber, the animals were removed and admitted for behavioral testing. Intact control rats were also introduced into the chamber but not subjected to hypobaric hypoxia.

[2] = system: animals with hypobaric hypoxia-induced amnesia; test: Shuttle-box active avoidance acquisition, hypobaric hypoxia-induced amnesia; conditions: for Learners / CARs: hypobaric hypoxia; for CARs: mean ± S.E.M.
Experimental: as §1, §2
(§4) Shuttle-box active avoidance acquisition was studied in a single session test as described in Bohus and De Wied, Endogenous Peptides and Learning and Memory Processes. Academic Press, New York, pp59-775, (1981). Briefly, the rats were trained to avoid the unconditioned stimulus (US) of a scrambled electrical foot-shock (0.20 mA) delivered through the grid floor. The conditioned stimulus (CS) was a buzzer presented for 3 s prior to the US. If no escape occurred within 20 s of CS/US presentation, the shock was terminated. A maximum of 30 conditioning trials were given with a variable intertrial interval averaging 60 s. The learning criterion was five consecutive conditioned avoidance responses (CARs). For those animals that reached the criterion in less than 30 trials, the remaining trials until 30 were considered as CARs. Indexes of avoidance behaviour were the total number of CARs and the percent number of learners per group.
as §3

[3] = system: animals with chronic brain occlusive ischemia; test: Shuttle-box active avoidance acquisition, chronic brain occlusive ischemia; conditions: for CARs: chronic brain occlusive ischemia (2 months), mean ± S.E.M.
Experimental: as §1
(§5) A number of animals were subjected to a manipulation of the four major arteries of the brain with a method similar to that described by Pulsinelli et al., Ann. Neurol, 11, 491-498 (1982). Both vertebral arteries were cauterised under sodium pentobarbital anaesthesia and polyethylene cuffs PE-10 were placed loosely around the common carotid arteries without completely interrupting carotid blood flow. Two months after operation, all surviving animals showing no neurological gross abnormalities were admitted to drug treatment. Animals undergoing a sham operation were considered as controls.
as §2
as §4, with “Academic” for “Shuttle-box active avoidance acquisition was studied in a single session test as described in Bohus and De Wied, Endogenous Peptides and Learning and Memory Processes. Academic”
(§6) Animals with 2-month chronic brain occlusive ischemia, were subjected to a treatment with ropinirole, DHECP or saline for 7 days. At the end of treatment, the animals were admitted to behavioral testing. Controls were those animals with sham manipulation of brain arteries.

[4] = system: kainate-induced epilepsy; test: Kainate-induced convulsions (epilepsy); conditions: for Latency (s) to the first tonic-clonic seizure / Seizures (total number) / Mortality (%): kainic acid 10 μg/2 μl i.c.v.; for Latency (s) to the first tonic-clonic seizure / Seizures (total number): 30-min observation, mean ± S.E.M.; for Mortality (%): checked 2 h after convulsive agent
Experimental: as §1
Another group of animals were implanted under ether anaesthesia with a permanent plastic cannula in the right lateral ventricle (foramen interventriculare, Konig and Klippel A 6360) with another cannula into the right jugular vein. These animals were sacrificed at the end of behavioral procedure and the brains were utilized for biochemical analysis. Data were taken from animals showing no abnormalities at the postmortem examination. All experiments were carried out according to the European Community Council Directive 86/609/ECC and efforts were made to minimize animal suffering and to reduce the number of animals used.
as §2, with “[…],” for “ropinirole or DHECP were injected intravenously (i.v.) 30 min prior,”
Kainic acid (Sigma, USA) was dissolved in saline and injected i.c.v. at the dose of 10 μg/2 μi.
Over a 30-min observation, the following items were recorded per each animal receiving an i.c.v. injection of kainic acid: latency in s to the first tonic-clonic seizure; total number of seizures, percent rate of mortality (checked 2 h after the administration of the convulsive agent).
Behavioral scoring of kainate-induced convulsions was started immediately after i.c.v. injection of the drug and proceeded for 30 min. Ropinirole, DHECP or saline were injected twice, 30 min prior and, again, at the same time of the i.c.v. administration of kainic acid.

[5] = system: animals with chronic brain occlusive ischemia; test: Step-through passive avoidance, chronic brain occlusive ischemia; conditions: for Latency: median latency to re-enter dark box, max 300 s
Experimental: as §1, §5, §2, §6

[6] = kainate-induced seizures, summary of Table 3

In the case of CC(C)C[C@H]1C(=O)N2CCC[C@H]2[C@]2(O)O[C@](NC(=O)[C@@H]3C[C@@H]4c5cccc6[nH]cc(c56)C[C@H]4N(C)C3)(C(C)C)C(=O)N12 [DHECP, α-dihydroergocryptine methanesulfonate], the Ambulation ([1]; 0.5 mg/kg/day s.c. for 7 days) is reported as 68.9 ± 6.6^b, the Defecation ([1]; 0.5 mg/kg/day s.c. for 7 days) is reported as 3.4 ± 0.9 and the Grooming ([1]; 0.5 mg/kg/day s.c. for 7 days) is reported as 22.2 ± 2.3. The Rearing ([1]; 0.5 mg/kg/day s.c. for 7 days) was 16.4 ± 1.3^a,b, the Ambulation ([1]; 1 mg/kg/day s.c. for 7 days) was 73.1 ± 5.6^a,b and the Defecation ([1]; 1 mg/kg/day s.c. for 7 days) was 3.7 ± 1.3. The Grooming ([1]; 1 mg/kg/day s.c. for 7 days) was 23.3 ± 2.1, the Rearing ([1]; 1 mg/kg/day s.c. for 7 days) was 16.5 ± 1.9^b and the “ambulation and rearing (effect of treatment, in words)” value ([1]; vs intact controls and saline-treated hypoxic animals) was “higher”. The “number of CARs and percent number of learners in the shuttle-box (effect of treatment, in words)” value ([2]; hypobaric hypoxia-induced amnesia, summary of Table 1) was “increase in these behavioral parameters, however, for the latter only with the greater dose”, the Learners ([2]; 0.5 mg/kg/day s.c. for 7 days) was 30^c percent and the CARs ([2]; 0.5 mg/kg/day s.c. for 7 days) was 13.0 ± 1.3^a. For the same compound, the Learners ([2]; 1 mg/kg/day s.c. for 7 days) was 80^d percent, the CARs ([2]; 1 mg/kg/day s.c. for 7 days) was 18.1 ± 1.2^b and the CARs ([3]; 0.5 mg/kg/day s.c. for 7 days) was 10.6 ± 1.1^a. For the same compound, the CARs ([3]; 1 mg/kg/day s.c. for 7 days) was 14.1 ± 1.1^a, the Learners ([3]; chronic brain occlusive ischemia, 0.5 mg/kg/day s.c. for 7 days) was 20^b percent and the Learners ([3]; chronic brain occlusive ischemia, 1 mg/kg/day s.c. for 7 days) was 10^b percent. The “cognitive parameters of the active avoidance test (effect of treatment, in words)” value ([3]; chronic brain occlusive ischemia, Table 2) was “No statistically significant change”, the “latency to the first tonic-clonic seizure (effect of treatment, in words)” value [4, 6] was “did not modify” and the “percent mortality rate (effect of treatment, in words)” value [4, 6] was “significant decrease”. The “total number of kainate-induced seizures (effect of treatment, in words)” value [4, 6] was “did not modify”, the “Latency (s) to the first tonic-clonic seizure” value ([4]; 0.5 mg/kg injected s.c. twice (30 min prior and at kainic acid)) was 56.9 ± 8.5 s and the “Seizures (total number)” value ([4]; 0.5 mg/kg injected s.c. twice) was 7.8 ± 1.0. The “Mortality (%)” value ([4]; 0.5 mg/kg injected s.c. twice) was 10^a %, the “Latency (s) to the first tonic-clonic seizure” value ([4]; 1 mg/kg injected s.c. twice (30 min prior and at kainic acid)) was 69.2 ± 6.5 s and the “Seizures (total number)” value ([4]; 1 mg/kg injected s.c. twice) was 5.7 ± 1.1. For the same compound, the “Mortality (%)” value ([4]; 1 mg/kg injected s.c. twice) was 10^a %, the Latency ([5]; 0.5 mg/kg/day s.c. for 7 days) was 46^c,d and the Latency ([5]; 1 mg/kg/day s.c. for 7 days) was 58^d. The “latency to re-enter the dark-box (effect of treatment, in words)” value ([5]; Table 2) was “increased”.
